Test results: patent US6211170A, “Azetidinone derivatives for the treatment of HCMV infections” (Boehringer Ingelheim (Canada) Ltd., priority 1998, dated 2001)
Where two headings read alike, the source gives them in different places.

How the values were obtained:
[1] = Cytotoxicity, tetrazolium salt (MTT) metabolic assay; type: cell-based; conditions: cytotoxic effects, read-out: TC50 (the source's name)
Method: Cytotoxic effects noted as TC50 in the following tables were determined according to the tetrazolium salt (MTT) metabolic assay, F. Denizot and F. Lang, J. Immun. Meth., 1986, 89, 271.

[2] = system: HCMV (strain AD169, ATCC VR-538); experiment: Plaque Reduction Assay (PRA) in HCMV-infected Hs-68 cells; type: cell-based, human cytomegalovirus (HCMV)
Method: B. Plaque Reduction Assay (PRA):
Hs-68 cells (ATCC # CRL 1635) were seeded in 12-well plates at 83,000 cells/well in 1 mL of DMEM medium (Gibco Canada Inc.) supplemented with 10% fetal bovine serum (FBS, Gibco Canada Inc.). The plates were incubated for 3 days at 37° to allow the cells to reach 80-90% confluency prior to the assay.
The medium was removed from the cells by aspiration. The cells were then infected with approximately 50 PFU of HCMV (strain AD169, ATCC VR-538) in DMEM medium supplemented with 5% inactivated FBS (assay medium). (DMEM medium is commercially available and has been described by R. Dulbecco et al., Virology 1959, 8, 396.) The virus was allowed to adsorb to cells for 2 h at 37°. Following viral adsorption, the medium was removed from the wells by aspiration. The cells were then incubated with or without 1 mL of appropriate concentrations of test reagent in assay medium. Occasionally, test compounds were added 24 h post-infection. After 4 days of incubation at 37°, the medium was exchanged with fresh medium containing test compound and 4 days later the cells were fixed with 1% aqueous formaldehyde and stained with a 2% violet solution in 20% ethanol in water. Microscopic plaques were counted using a stereomicroscope. Drug effects were calculated as a percent reduction in the number of plaques in the presence of each drug concentration compared to the number observed in the absence of drug. Ganciclovir was used as a positive control in all experiments.

[3] = target: T1, HCMV NO protease (Human cytomegalovirus, UniProt P16753); experiment: HCMV NO Protease Assay (fluorogenic substrate cleavage); type: biochemical; conditions: HCMV NO protease 100 nM, substrate 5 μM, pH 8, 2.5 h at 30°
T1 construct: HCMV NO protease
T1 sequence (P16753 1-256): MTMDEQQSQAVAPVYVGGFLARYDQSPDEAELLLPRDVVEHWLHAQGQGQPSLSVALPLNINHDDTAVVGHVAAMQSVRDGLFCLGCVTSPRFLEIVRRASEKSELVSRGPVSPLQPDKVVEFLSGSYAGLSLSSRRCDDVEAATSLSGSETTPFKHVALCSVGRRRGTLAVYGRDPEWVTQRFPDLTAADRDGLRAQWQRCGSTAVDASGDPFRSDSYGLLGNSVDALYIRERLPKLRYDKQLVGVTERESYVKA
Method: This particular assay determines the ability of a test compound to inhibit the activity (IC50) of HCMV protease. More specifically, in the assay described herein, the inhibitory activity of the test compound is evaluated on the basis of its ability to interfere with the HCMV NO protease cleavage of a fluorogenic peptide substrate which in turn is based on the maturation cleavage site of the enzyme.
1. HCMV NO Protease Assay
Material & Methods: Fluorescence measurements were recorded on a Perkin-Elmer LS-50B spectrofluorimeter equipped with a plate reader accessory. UV measurements were recorded on a Thermomax® microplate reader from Molecular Devices Corporation, Menlo Park, Calif., USA.
HCMV NO protease was assayed with an internally quenched fluorogenic substrate based on the maturation cleavage site (Abz-[…](3-NO2)R--OH, kcat /KM =260 M^-1 s^-1). The fluorescence increase upon cleavage of the Ala-Ser amide bond was monitored using excitation λ=312 nm (slit 2.5 nm) and emission λ=415 nm (slit 5 nm). A protocol adaptable to a 96-well plate format was designed for the determination of IC50 values of inhibitors.
After this period, enzymatic hydrolysis of the fluorogenic substrate in the absence of inhibitor led to about a 30% conversion. Quenching was not required before fluorescence measurement since the total scanning time by the plate reader accessory was brief relative to the duration of the reaction. The aqueous incubation buffer contained 50 mM tris(hydroxymethyl)aminomethane.HCl pH 8, 0.5M Na2 SO4, 50 mM NaCl, 0.1 mM EDTA, 1 mM tris(2-carboxyethyl)phosphine.HCl, 3% v/v DMSO and 0.05% w/v casein. The final concentrations of HCMV NO protease (expressed in terms of total monomer concentration) and substrate were 100 nM and 5 μM respectively. IC50 values were obtained through fitting of the inhibition curve to a competitive inhibition model using SAS NLIN procedure. The mode of inhibition was determined by measurements of the initial rates (in cuvettes) at various substrate concentrations in the buffer as described above. The IC50 values listed in the following tables were obtained according to this assay.

[4] = Human betaherpesvirus 5, Hs68, 192 h, plaque reduction, HCMV strain AD169, Hs-68 cells, 8 days, read-out: EC50
[5] = Human betaherpesvirus 5, AD169, Hs68, 192 h

SMILES	CC50 [1] [µM]	EC50 [2, 4] [µM]	IC50 [3] [µM]	EC50 [2, 5] [µM]
CC[C@@H](NC(=O)N1C(=O)C[C@@H]1COc1ccccc1)c1ccccc1 [Entry 130]	> 250	101	5.2	–
CC[C@@H](NC(=O)N1C(=O)C[C@@H]1COC(=O)Nc1ccccc1)c1ccccc1 [Entry 131]	> 32	–	0.4	20
CC[C@@H](NC(=O)N1C(=O)C[C@@H]1COC(C)=O)c1ccccc1 [Entry 132]	> 250	210	3	–
CC[C@@H](NC(=O)N1C(=O)C[C@@H]1COC(=O)c1ccc2ccccc2c1)c1ccccc1 [Entry 133]	> 26	–	0.95	18
CC[C@@H](NC(=O)N1C(=O)C[C@@H]1COC(=O)c1cccc2ccccc12)c1ccccc1 [Entry 134]	> 13	–	0.46	9
CC[C@@H](NC(=O)N1C(=O)C[C@@H]1CN(C)Cc1ccccc1)c1ccccc1 [Entry 137]	> 147	> 147	9.9	–
CC[C@@H](NC(=O)N1C(=O)C[C@@H]1CSc1nc2ncccc2s1)c1ccccc1 [Entry 139]	> 53	–	0.8	> 53
CC[C@@H](NC(=O)N1C(=O)C[C@@H]1CSc1nccn1C)c1ccccc1 [Entry 140]	> 268	–	0.7	> 268
CC[C@@H](NC(=O)N1C(=O)C[C@@H]1CSc1nc2ccccc2o1)c1ccccc1 [Entry 141]	> 26	–	0.8	22
CC[C@@H](NC(=O)N1C(=O)C[C@@H]1CS(=O)(=O)c1ccccc1)c1ccccc1 [Entry 144]	58	5	1.9	–
CC[C@@H](NC(=O)N1C(=O)C[C@@H]1COC(=O)c1ccccc1)c1ccccc1 [Entry 145]	250	–	0.12	250
O=C1C[C@H](CSc2ccccc2)N1C(=O)NCc1ccncc1 [Entry 201, 2-oxo-4(R)-(phenylsulfanylmethyl) azetidine-1-carboxylic acid (pyridin-4-ylmethyl)amide]	> 270	75	7.9	–
O=C(NC[C@H]1CC(=O)N1C(=O)NCc1ccccc1)c1ccccc1 [Entry 204]	> 250	120	2.6	–
CC[C@@H](NC(=O)N1C(=O)C[C@@H]1CN1CCCCC1)c1ccccc1 [Entry 206, 2-oxo-4(R)-(piperidin-1-ylmethyl)azetidine-1-carboxylic acid (1(R)-phenylpropyl)amide]	> 250	> 250	3.7	–
CC[C@@H](NC(=O)N1C(=O)C[C@@H]1[C@H](C)Sc1ncccn1)c1ccccc1 [Entry 208, 2-oxo-4(R)-[1(S)-(pyrimidin-2-ylsulfanyl)ethyl]-azetidine-1-carboxylic acid (1(R)-phenylpropyl)amide]	> 250	> 250	4.5	–
CC[C@@H](NC(=O)N1C(=O)C[C@@H]1[C@@H](C)Sc1ncccn1)c1ccccc1 [Entry 209, 2-oxo-4(R)-[1(R)-(pyrimidin-2-ylsulfanyl)ethyl]azetidine-1-carboxylic acid (1(R)-phenylpropyl)amide]	> 168	80	3.4	–
C[C@@H](NC(=O)N1C(=O)C[C@@H]1CSc1ccccc1)c1ccccc1 [Entry 212]	> 52	31	4.4	–

SMILES	CC50 [1] [µM]	EC50 [2, 4] [µM]	IC50 [3] [µM]	EC50 [2, 5] [µM]
CN(Cc1ccc(C(F)(F)F)cc1)C(=O)N1C(=O)C[C@@H]1CSc1ncccn1 [Entry 301]	> 250	95	1.7	–
COC(=O)c1ccc(CN(C)C(=O)N2C(=O)C[C@@H]2CSc2ncccn2)cc1 [Entry 302]	> 250	170	3.9	–
CN(Cc1ccc(C(=O)OCc2ccccc2)cc1)C(=O)N1C(=O)C[C@@H]1CSc1ncccn1 [Entry 304]	> 250	120	2.5	–
CN(C)C(=O)c1ccc(CN(C)C(=O)N2C(=O)C[C@@H]2CSc2ncccn2)cc1 [Entry 305]	> 250	210	14	–
COC(=O)c1ccc(CN(C)C(=O)N2C(=O)C[C@@H]2CSc2nccc(C)n2)cc1 [Entry 307]	> 250	105	3.5	–
COC(=O)c1ccc(CN(C)C(=O)N2C(=O)C[C@@H]2CSc2nnnn2C)cc1 [Entry 309]	> 250	130	1	–
CN(Cc1ccc(C(F)(F)F)cc1)C(=O)N1C(=O)C[C@@H]1CSc1ccncc1 [Entry 311]	> 250	250	0.6	–
CN(Cc1ccc(C#N)cc1)C(=O)N1C(=O)C[C@@H]1CSc1ncccn1 [Entry 312]	> 250	100	4.7	–
CN(Cc1ccc(F)cc1)C(=O)N1C(=O)C[C@@H]1CSc1ncccn1 [Entry 313]	> 250	110	8.3	–
CN(Cc1ccc(C(F)(F)F)cc1)C(=O)N1C(=O)C[C@@H]1CSc1nccn1C [Entry 314]	> 250	> 250	5.5	–
CN(Cc1ccc(C(F)(F)F)cc1)C(=O)N1C(=O)C[C@@H]1CSc1nc2ncccc2s1 [Entry 316]	> 18	14	1.6	–
CN(Cc1ccc2c(c1)OCO2)C(=O)N1C(=O)C[C@@H]1CSc1ncccn1 [Entry 317]	> 249	140	9	–
CN(Cc1ccccc1)C(=O)N1C(=O)C[C@@H]1CSc1ncccn1 [Entry 318]	> 150	150	10	–
CN(Cc1ccc(C(F)(F)F)cc1)C(=O)N1C(=O)C[C@@H]1CSc1nc2ccccc2o1 [Entry 319]	> 250	160	1.7	–
CN(Cc1ccc(C(F)(F)F)cc1)C(=O)N1C(=O)C[C@@H]1CSc1nnnn1C [Entry 320]	> 250	69	0.47	–
O=C1C[C@H](CSc2ncccn2)N1C(=O)N1CCC[C@@H]1c1ccccc1 [Entry 403, 1-(2(R)-phenyl-pyrrolidine-1-carbonyl)-4-(pyrimidin-2-ylsulfanylmethyl)azetidin-2-one]	> 250	95	14	–
